Experimental data from patent US20070244110A1, “Treatment of prostate cancer, melanoma or hepatic cancer” (ZENYAKU KOGYO KABUSHIKI KAISHA, priority 2006, published 2007).

What was measured:
[1] = system: PC-3 prostate cancer cells; assay: In vitro anti-tumor experiment, growth inhibition of PC-3 cells; assay type: cell-based; details: PC-3, 72 hours incubation
Procedure: (§1) Hepatoma HepG2 cells were cultured in a MEM culture medium (containing 10% fetal bovine serum, 25 mM HEPES and 0.1 mg/ml kanamycin) under conditions of 5% carbon dioxide at 37° C. HepG2 cells were harvested as single free cells by a tripsin/EDTA treatment in the logarithmic growth phase, and a cell suspension solution consisted of 2×10^4 cells per ml was prepared with MEM culture medium (containing 10% fetal bovine serum, 25 mM HEPES and 0.1 mg/ml kanamycin). The test compound was dissolved in DMSO, then diluted with RPMI1640 culture medium (containing 10% fetal bovine serum, 25 mM HEPES, 0.1 mg/ml kanamycin), and adjusted to a concentration of 2.0×10^−9 to 2.0×10^−3 M.
(§2) 0.1 ml of the cell suspension solution was put in each well of a 96-well plate, then cultured for 24 hours to make the cells adhere to the microplates, and 0.1 ml of the test compound was added in each well and incubated for 72 hours under conditions of 5% carbon dioxide at 37° C. The 50% growth inhibition concentration (GI50 value μM) was computed from the growth inhibition rates at various test sample concentrations, and the results are shown in Table 1.
(§3) When using cells other than HepG2 cells, the following culture media were used instead of the MEM culture medium, and the following single cell suspensions were prepared with the following media:
PC-3 prostate cancer cells:
F12K culture medium containing 10% fetal bovine serum, 2×10^4 cell suspension

Hepatoma HepG2 cells = assay: In vitro anti-tumor experiment, growth inhibition of HepG2 cells; assay type: cell-based; details: HepG2, 72 hours incubation
Procedure: as §1, §2

B16F10 melanoma cells = assay: In vitro anti-tumor experiment, growth inhibition of B16F10 cells; assay type: cell-based; details: B16F10, 72 hours incubation
Procedure: as §1, §2, §3
RPMI1640 culture medium containing 10% fetal bovine serum, 1×10^4 cell suspension

[2] = system: PC-3 prostate cancer cells; assay: In vivo anti-tumor experiment, PC-3 human tumor xenograft; design: species or system BALB/c nude mice; details: 6 days a week for two weeks, day 14
Procedure: (§4) Human tumor xenografts were generated with PC-3 prostate cancer cells, and WiDr colon cancer cells, and were grown as subcutaneous tumors in mutant BALB/c nude mice. Each nude mouse was subcutaneously inoculated with a tumor fragment of 2 mm by 2 mm by 2 mm. When tumors reached a volume of 100-300 mm^3, animals were divided randomly into test groups of five mice (day 0). The samples were orally administered at a dosage of 100, 200 or 400 mg/kg once daily, 6 days a week for two weeks. The length (L) and width (W) of the subcutaneous tumor mass were measured by calipers in live mice, and the tumor volume (TV) was calculated as: TV=(L×W^2)/2. The tumor volume at day n was expressed as relative tumor volume (RTV), according to the formula RTV=TVn/TV0, where TVn is the tumor volume at day n, and TV0 is the tumor volume at day 0. T/C% on day 14 was determined by calculating RTV as: T/C%=100×(mean RTV of treated group)/(mean RTV of control group). The specimens in which T/C (%) was 50% or less and having a significant difference at P value 1% on one side in a Mann-Whitney U test were evaluated as effective (+).

WiDr colon cancer cells = assay: In vivo anti-tumor experiment, WiDr human tumor xenograft (reference); design: species or system BALB/c nude mice; details: 6 days a week for two weeks, day 14
Procedure: as §4

Row | GI50 ([1]; Homo sapiens) [nM] | GI50 (Hepatoma HepG2 cells; Homo sapiens) [nM] | GI50 (B16F10 melanoma cells; Mus musculus, B16-F10) [nM] | melting point [°C] | Compound | Evaluation effective (+), Prostate Cancer ([2]; 200 mg/kg orally once daily) | T/C (%) Prostate Cancer ([2]; 200 mg/kg orally once daily) [%] | T/C (%) Colon Cancer (reference) (WiDr colon cancer cells; 200 mg/kg orally once daily) [%] | further results
1 | 490 | 1120 | 1140 | 166 to 169 | C[C@@H]1CO[C@@H](C)CN1c1nc(N2CCOCC2)nc(-n2c(C(F)F)nc3ccccc32)n1 (relative stereo) [Compound 3, 2-(2-difluoromethylbenzimidazol-1-yl)-4-(trans-2,5-dimethylmorpholino)-6-morpholino-1,3,5-triazine] |  |  |  | 
2 | 240 | 1150 | 310 |  | FC(F)c1nc2ccccc2n1-c1nc(N2CCOCC2)nc(N2CCOCC2)n1 [Compound 1, 2-(2-difluoromethylbenzimidazol-1-yl)-4,6-dimorpholino-1,3,5-triazine] |  |  |  | Evaluation effective (+), Prostate Cancer ([2]; 400 mg/kg orally once daily): + (T/C (%) was 50% or less and having a significant difference at P value 1% on one side in a Mann-Whitney U test were evaluated as effective (+)); T/C (%) Prostate Cancer ([2]; 400 mg/kg orally once daily): 24.8%; Evaluation effective (+), Colon Cancer (reference) (WiDr colon cancer cells; 400 mg/kg orally once daily): + (T/C (%) was 50% or less and having a significant difference at P value 1% on one side in a Mann-Whitney U test were evaluated as effective (+)); T/C (%) Colon Cancer (reference) (WiDr colon cancer cells; 400 mg/kg orally once daily): 33.2%
3 | 740 | 1500 | 950 | 176 to 178 | CC1(C)CN(c2nc(N3CCOCC3)nc(-n3c(C(F)F)nc4ccccc43)n2)CCO1 [Compound 2, 2-(2-difluoromethylbenzimidazol-1-yl)-4-(2,2-dimethylmorpholino)-6-morpholino-1,3,5-triazine] |  |  |  | 
4 | 190 | 340 | 250 |  | COc1cccc2c1nc(C(F)F)n2-c1nc(N2CCOCC2)nc(N2CCOCC2)n1 [Compound 4, 2-(2-difluoromethyl-4-methoxybenzimidazol-1-yl)-4,6-dimorpholino-1,3,5-triazine] |  |  |  | 
5 |  |  |  | 160 to 162 | COc1cccc2c1nc(C(F)F)n2-c1nc(N2CCOCC2)cc(N2CCOC(C)(C)C2)n1 [Compound 5, 2-(2-difluoromethyl-4-methoxybenzimidazol-1-yl)-4-(2,2-dimethylmorpholino)-6-morpholinopyrimidine] | + (T/C (%) was 50% or less and having a significant difference at P value 1% on one side in a Mann-Whitney U test were evaluated as effective (+)) | 39.1 |  | Evaluation effective (+), Colon Cancer (reference) (WiDr colon cancer cells; 100 mg/kg orally once daily): + (T/C (%) was 50% or less and having a significant difference at P value 1% on one side in a Mann-Whitney U test were evaluated as effective (+))
6 |  |  |  |  | COc1cccc2c1nc(C(F)F)n2-c1nc(N2CCOCC2)cc(N2C[C@@H](C)O[C@@H](C)C2)n1 [Compound 6, 2-(2-difluoromethyl-4-methoxybenzimidazol-1-yl)-4-(cis-2,6-dimethylmorpholino)-6-moropholinopyrimidine] | + (T/C (%) was 50% or less and having a significant difference at P value 1% on one side in a Mann-Whitney U test were evaluated as effective (+)) | 16.2 | 29.5 | Evaluation effective (+), Prostate Cancer ([2]; 100 mg/kg orally once daily): + (T/C (%) was 50% or less and having a significant difference at P value 1% on one side in a Mann-Whitney U test were evaluated as effective (+)); T/C (%) Prostate Cancer ([2]; 100 mg/kg orally once daily): 32.3%; GI50 [1]: 540 nM; GI50 (Hepatoma HepG2 cells): 890 nM; Evaluation effective (+), Colon Cancer (reference) (WiDr colon cancer cells; 100 mg/kg orally once daily): + (T/C (%) was 50% or less and having a significant difference at P value 1% on one side in a Mann-Whitney U test were evaluated as effective (+)); T/C (%) Colon Cancer (reference) (WiDr colon cancer cells; 100 mg/kg orally once daily): 24.8%; Evaluation effective (+), Colon Cancer (reference) (WiDr colon cancer cells; 200 mg/kg orally once daily): + (T/C (%) was 50% or less and having a significant difference at P value 1% on one side in a Mann-Whitney U test were evaluated as effective (+)); GI50 (B16F10 melanoma cells): 1210 nM
7 | 10 | 120 | 18 |  | Oc1cccc2c1nc(C(F)F)n2-c1nc(N2CCOCC2)nc(N2CCOCC2)n1 [Compound 8, 2-(2-difluoromethyl-4-hydroxybenzimidazol-1-yl)-4,6-dimorpholino-1,3,5-triazine] |  |  |  | 
8 | 20 | 150 | 63 |  | OCC1CCCN1c1nc(N2CCOCC2)nc(-n2c(C(F)F)nc3c(O)cccc32)n1 (stereo not shown) [Compound 9, 2-(2-difluoromethyl-4-hydroxybenzimidazol-1-yl)-4-(2-hydroxymethylpyrrolidin-1-yl)-6-morpholino-1,3,5-triazine] | + (T/C (%) was 50% or less and having a significant difference at P value 1% on one side in a Mann-Whitney U test were evaluated as effective (+)) | 31.8 | 49.6 | Evaluation effective (+), Colon Cancer (reference) (WiDr colon cancer cells; 200 mg/kg orally once daily): + (T/C (%) was 50% or less and having a significant difference at P value 1% on one side in a Mann-Whitney U test were evaluated as effective (+))
9 |  |  |  |  | CC1(C)COCCN1c1cc(N2CCOCC2)nc(-n2c(C(F)F)nc3c(O)cccc32)n1 [Compound 10, 2-(2-difluoromethyl-4-hydroxybenzimidazol-1-yl)-4-(3,3-dimethylmoropholino)-6-morpholinopyrimidine] | + (T/C (%) was 50% or less and having a significant difference at P value 1% on one side in a Mann-Whitney U test were evaluated as effective (+)) | 38.1 | 46.2 | Evaluation effective (+), Prostate Cancer ([2]; 400 mg/kg orally once daily): + (T/C (%) was 50% or less and having a significant difference at P value 1% on one side in a Mann-Whitney U test were evaluated as effective (+)); T/C (%) Prostate Cancer ([2]; 400 mg/kg orally once daily): 20.8%; GI50 [1]: 20 nM; GI50 (Hepatoma HepG2 cells): 90 nM; Evaluation effective (+), Colon Cancer (reference) (WiDr colon cancer cells; 200 mg/kg orally once daily): + (T/C (%) was 50% or less and having a significant difference at P value 1% on one side in a Mann-Whitney U test were evaluated as effective (+)); T/C (%) Colon Cancer (reference) (WiDr colon cancer cells; 400 mg/kg orally once daily): 63.1%; GI50 (B16F10 melanoma cells): 42 nM
10 |  |  |  | 214 to 215 | C[C@@H]1CN(c2nc(N3CCOCC3)nc(-n3c(C(F)F)nc4c(O)cccc43)n2)C[C@H](C)O1 [Compound 11, 2-(2-difluoromethyl-4-hydroxybenzimidazol-1-yl)-4-(cis-2,6-dimethylmorpholino)-6-morpholino-1,3,5-triazine] |  | 66.5 | 85.4 | Evaluation effective (+), Prostate Cancer ([2]; 400 mg/kg orally once daily): + (T/C (%) was 50% or less and having a significant difference at P value 1% on one side in a Mann-Whitney U test were evaluated as effective (+)); T/C (%) Prostate Cancer ([2]; 400 mg/kg orally once daily): 44.3%; T/C (%) Colon Cancer (reference) (WiDr colon cancer cells; 400 mg/kg orally once daily): 83.5%
11 |  |  |  |  | CC(=O)Oc1cccc2c1nc(C(F)F)n2-c1nc(N2CCOCC2)cc(N2C[C@@H](C)O[C@@H](C)C2)n1 [Compound 13, 2-(2-difluoromethyl-4-acetoxybenzimidazol-1-yl)-4-(cis-2,6-dimethylmoropholino)-6-morpholinopyrimidine] |  | 65.4 |  | 
12 |  |  |  |  | COC(=O)Oc1cccc2c1nc(C(F)F)n2-c1nc(N2CCOCC2)cc(N2CCOC(C)(C)C2)n1 [Compound 14, 2-(2-difluoromethyl-4-methoxycarbonyloxybenzimidazol-1-yl)-4-(2,2-dimethyl-moropholino)-6-morpholinopyrimidine] | + (T/C (%) was 50% or less and having a significant difference at P value 1% on one side in a Mann-Whitney U test were evaluated as effective (+)) | 47.3 |  | 
13 |  |  |  |  | CCOC(=O)Oc1cccc2c1nc(C(F)F)n2-c1nc(N2CCOCC2)cc(N2C[C@@H](C)O[C@@H](C)C2)n1 [Compound 15, 2-(4-ethoxycarbonyloxy-2-difluoromethylbenzimidazol-1-yl)-4-(cis-2,6-dimethyl-moropholino)-6-morpholinopyrimidine] | + (T/C (%) was 50% or less and having a significant difference at P value 1% on one side in a Mann-Whitney U test were evaluated as effective (+)) | 47.5 |  | 
